Laboratory results taken from ChEMBL document CHEMBL4651402, “Screening of ~5500 FDA-approved drugs and clinical candidates for anti-SARS-CoV-2 activity” (2021).

Test system: SARS-CoV-2
Test: microbe, parasite or virus in culture
Conditions: Severe acute respiratory syndrome coronavirus 2, Vero C1008, 48 h

| SMILES | IC50 | IC50 (read-out: pIC50 (converted)) |
| --- | --- | --- |
| CCc1cc(Cl)c(OC)c(C(=O)NC[C@@H]2CCCN2CC)c1O [ETICLOPRIDE] | > 20 µM | > 20 µM |
| CC(C)N1CCN(c2ccc(N3CCN(c4ccc(OC[C@H]5OC[C@](Cn6cncn6)(c6ccc(F)cc6F)O5)cc4)CC3)cc2)C1=O (racemic) [PRAMICONAZOLE] | > 20 µM | > 20 µM |
| OC(CCN1CCCCC1)(c1ccccc1)C1C[C@@H]2C=C[C@H]1C2 (stereo partly specified) | > 20 µM | > 20 µM |
| O=C(c1ccc(F)cc1)C1CCN(CCCCn2c(=O)[nH]c3ccccc3c2=O)CC1 [BUTANSERIN] | > 20 µM | > 20 µM |
| COc1cc(C(=O)N2CCOCC2)cc(OC)c1OC [TRIMETOZINE] | > 20 µM | > 20 µM |
| CCN(CC)CC#CCOC(=O)C(O)(c1ccccc1)C1CCCCC1 (stereo unspecified) [OXYBUTYNIN] | > 20 µM | > 20 µM |
| C[C@H]1[C@H](NC(=O)/C(=N\OC(C)(C)C(=O)O)c2csc(N)n2)C(=O)N1S(=O)(=O)O [AZTREONAM] | > 20 µM | > 20 µM |
| C=CCC(N)c1ccccc1-c1noc2ccccc12 (stereo unspecified) | > 20 µM | > 20 µM |
| Nc1nc(=O)n([C@H]2CC[C@@H](CO)O2)cc1F | > 20 µM | > 20 µM |
| CCOC(=O)C(C)(C)Oc1ccc(Cl)cc1 [CLOFIBRATE] | > 20 µM | > 20 µM |
| Cc1c(NC(C)C)c(=O)n(-c2ccccc2)n1C [RAMIFENAZONE] | > 20 µM | > 20 µM |
| COc1ccc(C(=O)c2ccc(C)cc2)c(O)c1 [MEXENONE] | > 20 µM | > 20 µM |
| C[C@@H]1CCC2[C@H](C)C3CC[C@@]4(O)[C@@H]5CC(=O)[C@H]6CC(=O)CC[C@]6(C)C5C[C@H]4[C@@H]3CN2C1 (stereo partly specified) | > 20 µM | > 20 µM |
| C[C@]12C[C@H](O)[C@H]3[C@@H](CCC4=CC(=O)CC[C@@]43C)[C@@H]1CC[C@@H]2C(=O)CO [CORTICOSTERONE] | > 20 µM | > 20 µM |
| Cc1ncc(CO)c(CO)c1O [PYRIDOXINE] | > 20 µM | > 20 µM |
| CC(O)Cn1cnc2c1c(=O)n(C)c(=O)n2C (stereo unspecified) [PROXYPHYLLINE] | > 20 µM | > 20 µM |
| Cc1nc2ccccn2c(=O)c1CCN1CCC(C(=O)c2ccc(F)cc2)CC1 [PIRENPERONE] | > 20 µM | > 20 µM |
| Cc1[nH]c2ccccc2c1CN(C)C [2-METHYL GRAMINE] | > 20 µM | > 20 µM |
| CCc1nc(C)ccc1O [EMOXYPINE] | > 20 µM | > 20 µM |
| Cc1ccc(-c2ncc(Cl)cc2-c2ccc(S(C)(=O)=O)cc2)cn1 [ETORICOXIB] | > 20 µM | > 20 µM |
| COc1ccc(O)cc1 [MEQUINOL] | > 20 µM | > 20 µM |
| CO[C@H]1/C=C/O[C@@]2(C)Oc3c(C)c(O)c4c(O)c(c(/C=N/N5CCN(C)CC5)c(O)c4c3C2=O)NC(=O)/C(C)=C\C=C\[C@H](C)[C@H](O)[C@@H](C)[C@@H](O)[C@@H](C)[C@H](OC(C)=O)[C@@H]1C [RIFAMPIN] | > 20 µM | > 20 µM |
| Cn1nnc(-c2ccc(-c3ccc(N4C[C@H](COP(=O)(O)O)OC4=O)cc3F)cn2)n1 [TEDIZOLID PHOSPHATE] | > 20 µM | > 20 µM |

| SMILES | IC50 | IC50 (read-out: pIC50 (converted)) |
| --- | --- | --- |
| CCOC(=O)C1=CCCC[C@@H]1S(=O)(=O)Nc1ccc(F)cc1Cl | > 20 µM | > 20 µM |
| CCCC(=O)O[C@H]1CN2CC[C@H](O)[C@@H]2[C@@H](O)[C@@H]1O [CELGOSIVIR] | > 20 µM | > 20 µM |
| COc1ccccc1N1CCN(CCCNc2cc(=O)n(C)c(=O)n2C)CC1 | > 20 µM | > 20 µM |
| O=C(CCc1ccc(O)cc1)c1c(O)cc(O)cc1OC1OC(CO)C(O)C(O)C1O (stereo unspecified) | > 20 µM | > 20 µM |
| CN(c1nc2ccccc2s1)C1CCN(C[C@@H](O)COc2ccc(F)c(F)c2)CC1 | > 20 µM | > 20 µM |
| CN[C@H](CC(C)C)C(=O)N[C@H]1C(=O)N[C@@H](CC(N)=O)C(=O)N[C@H]2C(=O)N[C@H]3C(=O)N[C@H](C(=O)N[C@H](C(=O)O)c4cc(O)cc(O)c4-c4cc3ccc4O)[C@H](O[C@H]3C[C@](C)(N)[C@@H](O)[C@H](C)O3)c3ccc(c(Cl)c3)Oc3cc2cc(c3O[C@@H]2O[C@H](CO)[C@@H](O)[C@H](O)[C@H]2O[C@H]2C[C@](C)(NCc3ccc(-c4ccc(Cl)cc4)cc3)[C@@H](O)[C@H](C)O2)Oc2ccc(cc2Cl)[C@H]1O [ORITAVANCIN] | > 20 µM | > 20 µM |
| COc1cc2nc(N3CCN(C(=O)C4COc5ccccc5O4)CC3)nc(N)c2cc1OC (stereo unspecified) [DOXAZOSIN] | > 20 µM | > 20 µM |
| Cc1cccc(Cl)c1NC(=O)CCN1CCC[C@H]2CCC[C@@H]21 | > 20 µM | > 20 µM |
| CNc1ccc(-c2ccc3cc(OC[C@H](O)CF)ccc3n2)cc1 | > 20 µM | > 20 µM |
| COCCOC(=O)C1=C(C)NC(C)=C(C(=O)OC/C=C/c2ccccc2)C1c1cccc([N+](=O)[O-])c1 (stereo unspecified) [CILNIDIPINE] | > 20 µM | > 20 µM |
| Oc1cc(O)c2c(c1)OC(c1ccc(O)c(O)c1)C(O)C2 (stereo unspecified) [CATECHIN] | > 20 µM | > 20 µM |
| CN1C(=O)N(C)C2C1N(C)C(=O)N2C (stereo unspecified) [MEBICAR] | > 20 µM | > 20 µM |
| CNS(=O)(=O)Cc1ccc2[nH]cc(CCN(C)C)c2c1 | > 20 µM | > 20 µM |
| NC(CO)Cc1ccccc1 (stereo unspecified) | > 20 µM | > 20 µM |
| [2H]C([2H])(OC(=O)C(C)C)[C@@]1(CCl)O[C@@H](n2ccc(N)nc2=O)[C@H](F)[C@@H]1OC(=O)C(C)C | > 20 µM | > 20 µM |
| NC(=O)N1C(=O)/C(=C(\O)c2cccs2)c2cc(Cl)ccc21 [TENIDAP] | > 20 µM | > 20 µM |
| O=c1[nH]c2ccccc2n1C1CCN(CCCC(c2ccc(F)cc2)c2ccc(F)cc2)CC1 [PIMOZIDE] | > 20 µM | > 20 µM |
| CCOC(=O)[C@H](CCc1ccccc1)N[C@@H](C)C(=O)N1Cc2ccccc2C[C@H]1C(=O)O | > 20 µM | > 20 µM |
| COc1ccc2c(c1)C=C1Cn3c-2c(C2CCCCC2)c2ccc(cc23)C(=O)NS(=O)(=O)N(C)CCOCCN(C)C1=O [TMC-647055] | > 20 µM | > 20 µM |
| CC(=O)Oc1cccc(C)c1 | > 20 µM | > 20 µM |
| Cc1cc(C(C#N)c2ccc(Cl)cc2)c(Cl)cc1NC(=O)c1cc(I)cc(I)c1O (stereo unspecified) [CLOSANTEL] | > 20 µM | > 20 µM |
| Nc1nc(NC2CC2)c2ncn([C@H]3C=C[C@@H](CO)C3)c2n1 [ABACAVIR] | > 20 µM | > 20 µM |
| COc1ccc(-c2nc(N3CCOCC3)c3sc(CN(C)c4ncc(C(=O)NO)cn4)cc3n2)cn1 [FIMEPINOSTAT] | > 20 µM | > 20 µM |

| SMILES | IC50 | IC50 (read-out: pIC50 (converted)) |
| --- | --- | --- |
| [NH-]c1c[n+](N2CCOCC2)no1 [LINSIDOMINE] | > 20 µM | > 20 µM |
| O=c1c(O)c(-c2ccccc2)oc2ccccc12 [FLAVONOL] | > 20 µM | > 20 µM |
| Oc1cc(O)c2c(c1)O[C@H](c1ccc(O)c(O)c1)[C@@H](O)C2 [CIANIDANOL] | > 20 µM | > 20 µM |
| O=S(=O)(O)c1ccc2[nH]c(-c3ccccc3)nc2c1 [ENSULIZOLE] | > 20 µM | > 20 µM |
| COc1cc2nccc(Oc3ccc(NC(=O)Nc4cc(C)on4)c(Cl)c3)c2cc1OC [TIVOZANIB] | > 20 µM | > 20 µM |
| C[C@@]12CCC3[C@@](CC[C@@H]4[C@](C)(C(=O)O)CCC[C@@]34C)(CC1=O)C2 (stereo partly specified) | > 20 µM | > 20 µM |
| COc1ccc2c3c1O[C@H]1C[C@@H](O)C=C[C@@]31CCN(C)C2 [GALANTAMINE] | > 20 µM | > 20 µM |
| O=c1sn(-c2cccc3ccccc23)c(=O)n1Cc1ccccc1 [TIDEGLUSIB] | > 20 µM | > 20 µM |
| CC(=O)C1CCC2C3CCC4CC(O)CCC4(C)C3CC(O)C12C (stereo unspecified) | > 20 µM | > 20 µM |
| Cc1nc2sccn2c(=O)c1CCN1CCC(=C(c2ccc(F)cc2)c2ccc(F)cc2)CC1 [RITANSERIN] | > 20 µM | > 20 µM |
| COc1ccc2[nH]cc(CCNC(C)=O)c2c1 [MELATONIN] | > 20 µM | > 20 µM |
| CCC(=O)OC1CCC2C3CCC4=CC(=O)CCC4(C)C3CCC12C (stereo unspecified) | > 20 µM | > 20 µM |
| CC[C@]12C=CCN3CCC4(c5ccc(OC)cc5N(C)[C@H]4[C@](O)(C(=O)OC)[C@@H]1OC(C)=O)C32 (stereo partly specified) | > 20 µM | > 20 µM |
| CC(C)(C)C(=O)OCOC(=O)[C@@H]1N2C(=O)[C@@H](/N=C/N3CCCCCC3)[C@H]2SC1(C)C [AMDINOCILLIN PIVOXIL] | > 20 µM | > 20 µM |
| CN[C@H](CC(C)C)C(=O)N[C@H]1C(=O)N[C@@H](CC(N)=O)C(=O)N[C@H]2C(=O)N[C@H]3C(=O)N[C@H](C(=O)N[C@H](C(=O)O)c4cc(O)cc(O)c4-c4cc3ccc4O)[C@H](O)c3ccc(c(Cl)c3)Oc3cc2cc(c3O[C@@H]2O[C@H](CO)[C@@H](O)[C@H](O)[C@H]2O[C@H]2C[C@](C)(N)[C@H](O)[C@H](C)O2)Oc2ccc(cc2Cl)[C@H]1O [VANCOMYCIN] | > 20 µM | > 20 µM |
| c1ccc2[nH]c(-c3nc4ccccc4[nH]3)nc2c1 | > 20 µM | > 20 µM |
| NC(=O)c1ccn2c1CS[C@@H]2c1cccnc1 [DACOPAFANT] | > 20 µM | > 20 µM |
| CNC(CC(=O)O)C(=O)O (stereo unspecified) | > 20 µM | > 20 µM |
| CC[C@H](C)C(=O)O[C@H]1CCC=C2C=C[C@H](C)[C@H](CC[C@@H]3C[C@@H](O)CC(=O)O3)[C@H]21 [MEVASTATIN] | > 20 µM | > 20 µM |
| COCCNCc1ccc(-c2cc3nccc(Oc4ccc(NC(=O)C5(C(=O)Nc6ccc(F)cc6)CC5)cc4F)c3s2)nc1 [SITRAVATINIB] | > 20 µM | > 20 µM |
| CC(C)C[C@H](NC(=O)[C@H](CCc1ccccc1)NC(=O)CN1CCOCC1)C(=O)N[C@@H](Cc1ccccc1)C(=O)N[C@@H](CC(C)C)C(=O)[C@@]1(C)CO1 [CARFILZOMIB] | > 20 µM | > 20 µM |
| O=[N+]([O-])c1cc([As](=O)(O)O)ccc1O [ROXARSONE] | > 20 µM | > 20 µM |
